From patent US12365687B2 (Hoffmann-La Roche Inc., priority 2021, dated 2025)

Key:
[1] = target: human GABAA α2β2γ1 receptor (Homo sapiens (Human), UniProt P47869+Q8N1C3); experiment: Radioligand binding assay for γ1-containing GABAA subtypes, [3H]RO7239181 competition (α2β2γ1)
[2] = target: α2β2γ1 GABAA receptor subtype (Homo sapiens (Human), UniProt P47869+Q8N1C3); experiment: Two-electrode voltage clamp electrophysiology in Xenopus oocytes expressing GABAA receptors (modulation of GABA EC20 current); assay type: cell-based; settings: for Efficacy (GABA)%: % modulation of GABA EC20 = 100*(Fold increase-1), α2β2γ1 oocytes, compound at approx. 30-fold Ki; for Fold increase h-GABA-A α2β2γ1 oocyte @ 30-fold Ki: Xenopus oocytes expressing α2β2γ1, compound at approx. 30-fold its Ki α2β2γ1, GABA EC20 current
How it was run: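 Each concentration was tested on ≥3 oocytes held at −80 mV at room temperature, recorded 3-5 days post-injection. A control and a test response to EC20 GABA (1.5 min each) were superimposed and their point-by-point ratio taken. Peak ratio reported as % modulation of GABA EC20 = 100×(fold increase−1).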

[3] = target: human GABAA α5β2γ1 receptor (Homo sapiens (Human), UniProt P31644+Q8N1C3); experiment: Radioligand binding assay for γ1-containing GABAA subtypes, [3H]RO7239181 competition (α5β2γ1)
[4] = target: human GABAA α1β3γ2 receptor (Homo sapiens (Human), UniProt P14867+P18507); experiment: Radioligand binding assay for γ2-containing GABAA subtypes, [3H]Flumazenil competition (α1β3γ2); settings: for γ2/γ1 Selectivity Ratio: Ki α1β3γ2 (nM)/Ki α2β2γ1 (nM); for LogSel: Log[Ki α1β3γ2 (nM)/Ki α2β2γ1 (nM)]
[5] = Ki h-GABAA α2β2γ1, [3H]RO7239181 competition binding, human GABAA α2β2γ1
[6] = Ki h-GABAA α2β2γ1, displacement of [3H]RO7239181, membranes of HEK293F cells expressing human receptors, means of two determinations

Cc1cnc2n1-c1ccc(Br)c(Cl)c1C(c1c(F)cccc1F)=N[C@H]2C [Example 116, (4S)-8-bromo-7-chloro-6-(2,6-difluorophenyl)-1,4-dimethyl-4H-imidazo[1,2-a][1,4]benzodiazepine]
Ki [1, 5]: 5.7 nM | Ki [1, 6]: 5.7 nM | Efficacy (GABA)% [2]: 35% | Fold increase h-GABA-A α2β2γ1 oocyte @ 30-fold Ki [2]: 1.35 | Ki [3]: 2.47 nM | Ki [4]: 94.5 nM | γ2/γ1 Selectivity Ratio [4]: 16.4 | LogSel [4]: 1.22

C[C@@H]1N=C(c2c(F)cccc2F)c2c(ccc(C(F)(F)F)c2Cl)-n2nc(C(=O)NN3CCCC3)nc21 [Example 118, (4S)-7-chloro-6-(2,6-difluorophenyl)-4-methyl-N-pyrrolidin-1-yl-8-(trifluoromethyl)-4H-[1,2,4]triazolo[1,5-a][1,4]benzodiazepine-2-carboxamide]
Ki [1, 5]: 24.4 nM | Ki [1, 6]: 24.4 nM | Efficacy (GABA)% [2]: 120% | Fold increase h-GABA-A α2β2γ1 oocyte @ 30-fold Ki [2]: 2.20 | Ki [3]: 4.18 nM | Ki [4]: 4450 nM | γ2/γ1 Selectivity Ratio [4]: 182.7 | LogSel [4]: 2.26

C[C@@H]1N=C(c2ncccc2F)c2c(ccc(C(F)(F)F)c2Cl)-n2nc(C(=O)N3CC4(CCO4)C3)nc21 [Example 119, 1-oxa-6-azaspiro[3.3]heptan-6-yl-[(4S)-7-chloro-6-(3-fluoro-2-pyridyl)-4-methyl-8-(trifluoromethyl)-4H-[1,2,4]triazolo[1,5-a][1,4]benzodiazepin-2-yl]methanone]
Ki [1, 5]: 80.9 nM | Ki [1, 6]: 80.9 nM | Efficacy (GABA)% [2]: 124% | Fold increase h-GABA-A α2β2γ1 oocyte @ 30-fold Ki [2]: 2.24 | Ki [3]: 10.3 nM | Ki [4]: 12600 nM | γ2/γ1 Selectivity Ratio [4]: 156.1 | LogSel [4]: 2.19

C[C@@H]1N=C(c2ncccc2F)c2c(ccc(C(F)(F)F)c2Cl)-n2nc(C(=O)N3CC4(CCOC4)C3)nc21 [Example 120, 6-oxa-2-azaspiro[3.4]octan-2-yl-[(4S)-7-chloro-6-(3-fluoro-2-pyridyl)-4-methyl-8-(trifluoromethyl)-4H-[1,2,4]triazolo[1,5-a][1,4]benzodiazepin-2-yl]methanone]
Ki [1, 5]: 80.4 nM | Ki [1, 6]: 80.4 nM | Efficacy (GABA)% [2]: 178% | Fold increase h-GABA-A α2β2γ1 oocyte @ 30-fold Ki [2]: 2.78 | Ki [3]: 8.55 nM | Ki [4]: 5330 nM | γ2/γ1 Selectivity Ratio [4]: 66.3 | LogSel [4]: 1.82

C[C@@H]1N=C(c2c(F)cccc2F)c2c(ccc(C(F)(F)F)c2Cl)-n2nc(C(=O)N3CC(C(F)F)C3)nc21 [Example 122, [(4S)-7-chloro-6-(2,6-difluorophenyl)-4-methyl-8-(trifluoromethyl)-4H-[1,2,4]triazolo[1,5-a][1,4]benzodiazepin-2-yl]-[3-(difluoromethyl)azetidin-1-yl]methanone]
Ki [1, 5]: 10.6 nM | Ki [1, 6]: 10.6 nM | Efficacy (GABA)% [2]: 91% | Fold increase h-GABA-A α2β2γ1 oocyte @ 30-fold Ki [2]: 1.91 | Ki [3]: 3.82 nM | Ki [4]: 3050 nM | γ2/γ1 Selectivity Ratio [4]: 287.8 | LogSel [4]: 2.46

C[C@@H]1N=C(c2ncccc2F)c2c(ccc(C(F)(F)F)c2Cl)-n2nc(C(=O)N3CC[C@H](F)C3)nc21 [Example 123, [(4S)-7-chloro-6-(3-fluoro-2-pyridyl)-4-methyl-8-(trifluoromethyl)-4H-[1,2,4]triazolo[1,5-a][1,4]benzodiazepin-2-yl]-[(3S)-3-fluoropyrrolidin-1-yl]methanone]
Ki [1, 5]: 91.8 nM | Ki [1, 6]: 91.9 nM | Efficacy (GABA)% [2]: 162% | Fold increase h-GABA-A α2β2γ1 oocyte @ 30-fold Ki [2]: 2.62 | Ki [3]: 9.75 nM | Ki [4]: > 30000 nM | γ2/γ1 Selectivity Ratio [4]: 326.6 | LogSel [4]: 2.51

C[C@@H]1N=C(c2ncccc2F)c2c(ccc(C(F)(F)F)c2Cl)-n2nc(C(=O)N3CCS(=O)(=O)CC3)nc21 [Example 124, [(4S)-7-chloro-6-(3-fluoro-2-pyridyl)-4-methyl-8-(trifluoromethyl)-4H-[1,2,4]triazolo[1,5-a][1,4]benzodiazepin-2-yl]-(1,1-dioxo-1,4-thiazinan-4-yl)methanone]
Ki [1, 5]: 26.2 nM | Ki [1, 6]: 26.2 nM | Efficacy (GABA)% [2]: 145% | Fold increase h-GABA-A α2β2γ1 oocyte @ 30-fold Ki [2]: 2.45 | Ki [3]: 6.32 nM | Ki [4]: 14400 nM | γ2/γ1 Selectivity Ratio [4]: 547.2 | LogSel [4]: 2.74

C[C@@H]1N=C(c2c(F)cccc2F)c2c(ccc(C(F)(F)F)c2Cl)-n2nc(NC(=O)NC3COC3)nc21 [Example 125, 1-[(4S)-7-chloro-6-(2,6-difluorophenyl)-4-methyl-8-(trifluoromethyl)-4H-[1,2,4]triazolo[1,5-a][1,4]benzodiazepin-2-yl]-3-(oxetan-3-yl)urea]
Ki [1, 5]: 6.2 nM | Ki [1, 6]: 6.19 nM | Efficacy (GABA)% [2]: 73% | Fold increase h-GABA-A α2β2γ1 oocyte @ 30-fold Ki [2]: 1.73 | Ki [3]: 1.7 nM | Ki [4]: 1600 nM | γ2/γ1 Selectivity Ratio [4]: 259.0 | LogSel [4]: 2.41

C[C@@H]1N=C(c2c(F)cccc2F)c2c(ccc(C(F)(F)F)c2Cl)-n2nc(NC(=O)NC3CC3)nc21 [Example 126, 1-[(4S)-7-chloro-6-(2,6-difluorophenyl)-4-methyl-8-(trifluoromethyl)-4H-[1,2,4]triazolo[1,5-a][1,4]benzodiazepin-2-yl]-3-cyclopropyl-urea]
Ki [1, 5]: 10.2 nM | Ki [1, 6]: 10.2 nM | Efficacy (GABA)% [2]: 38% | Fold increase h-GABA-A α2β2γ1 oocyte @ 30-fold Ki [2]: 1.38 | Ki [3]: 3.23 nM | Ki [4]: 4600 nM | γ2/γ1 Selectivity Ratio [4]: 451.4 | LogSel [4]: 2.65

COC1CN(C(=O)Nc2nc3n(n2)-c2ccc(C(F)(F)F)c(Cl)c2C(c2c(F)cccc2F)=N[C@H]3C)C1 [Example 127, N-[(4S)-7-chloro-6-(2,6-difluorophenyl)-4-methyl-8-(trifluoromethyl)-4H-[1,2,4]triazolo[1,5-a][1,4]benzodiazepin-2-yl]-3-methoxy-azetidine-1-carboxamide]
Ki [1, 5]: 49.4 nM | Ki [1, 6]: 49.4 nM | Efficacy (GABA)% [2]: 112% | Fold increase h-GABA-A α2β2γ1 oocyte @ 30-fold Ki [2]: 2.12 | Ki [3]: 5.46 nM | Ki [4]: 4760 nM | γ2/γ1 Selectivity Ratio [4]: 96.5 | LogSel [4]: 1.98

C[C@@H]1N=C(c2c(F)cccc2F)c2c(ccc(C(F)(F)F)c2Cl)-n2nc(NC(=O)N3CC(F)C3)nc21 [Example 128, N-[(4S)-7-chloro-6-(2,6-difluorophenyl)-4-methyl-8-(trifluoromethyl)-4H-[1,2,4]triazolo[1,5-a][1,4]benzodiazepin-2-yl]-3-fluoro-azetidine-1-carboxamide]
Ki [1, 5]: 34.8 nM | Ki [1, 6]: 34.9 nM | Efficacy (GABA)% [2]: 98% | Fold increase h-GABA-A α2β2γ1 oocyte @ 30-fold Ki [2]: 1.98 | Ki [3]: 4.2 nM | Ki [4]: 3880 nM | γ2/γ1 Selectivity Ratio [4]: 111.4 | LogSel [4]: 2.05

C[C@@H]1N=C(c2c(F)cccc2F)c2c(ccc(C(F)(F)F)c2Cl)-n2nc(NC(=O)N3CCS(=O)(=O)CC3)nc21 [Example 131, N-[(4S)-7-chloro-6-(2,6-difluorophenyl)-4-methyl-8-(trifluoromethyl)-4H-[1,2,4]triazolo[1,5-a][1,4]benzodiazepin-2-yl]-1,1-dioxo-1,4-thiazinane-4-carboxamide]
Ki [1, 5]: 13.8 nM | Ki [1, 6]: 13.8 nM | Efficacy (GABA)% [2]: 104% | Fold increase h-GABA-A α2β2γ1 oocyte @ 30-fold Ki [2]: 2.04 | Ki [3]: 3.38 nM | Ki [4]: 2430 nM | γ2/γ1 Selectivity Ratio [4]: 176.5 | LogSel [4]: 2.25
